# What was measured:
# [1] = test system: B-cells isolated from patients with treatment-naïve CLL; assay: Limiting-cell RNA sequencing (lcRNAseq); type: cell-based, human
# Protocol: CLL cells isolated from patients were sorted for CD5^+/CD19^+ into lysis buffer. Libraries were prepared and sequenced as previously described.
# P-TEFb’s role in regulating transcription through POLII CTD phosphorylation is a canonical function of this complex. To interrogate the transcriptional changes associated with VIP152 treatment, we treated B-cells, isolated from four patients with treatment-naïve CLL, with 1 µM VIP152 or DMSO for two hours followed by fluorescence-assisted cell sorting for 500 live (Sytox^−), CD45^+/CD5^+/CD19^+ cells (Fig. 3A). Our group has previously defined an analysis pipeline, named CLEAR, which identifies evenly distributed reads for differentially expressed gene (DEG) analysis. […] When we looked at the expression of these differentially abundant genes via an unsupervised clustered heatmap, we noted that there was high concordance between the patient samples with clustering dependent on treatment group (Fig. 3C). The treatment did induce decreased transcript abundance of genes previously reported to be controlled by CDK9 activity, namely JUNB, BTG1, and MCL1 [45, 46]. Downregulation of the anti-apoptotic MCL1 (LFC: −1.231056 & p-value = 0.02) likely contributes to the susceptibility of primary CLL cells to apoptosis (Fig. 2F, G). […] It has been established that AU-rich element (ARE) mRNA molecules are under tight temporal regulation and control a variety of cellular processes. Moreover, the relationship between P-TEFb mediated transcription and ARE-bearing mRNA has previously been described. […] We appreciate from our limiting-cell RNA sequencing experiments that the loss of tristetrapolin (ZFP36) transcripts (LFC: −4.02; adjusted p-value: 7.97*10^−40) and the upregulation of ribosomal transcripts, likely correspond to a possible compensatory mechanism by which these cells attempt to improve translational output and maximize transcript maintenance in response to VIP152-induced transcriptional shutdown. […] We looked at transcripts which had been shown by photoactivatable ribonucleoside cross-linking and immunoprecipitation (PAR-CLIP) to interact with ZFP36 [50]. […] Additionally, we chose to look at BCL2 transcript stability as ZFP36L1 has been shown in B cell lymphoma to negatively regulate BCL2 transcript stability. We performed an mRNA stability study on patient samples treated with VIP152 with Actinomycin-D and observed an increase in the half-lives of each of these transcripts including BCL2 (Fig. 3H–M).
# Adrenergic α2A = biological target: T1, Adrenergic α2A (Homo sapiens, UniProt P08913); assay: Eurofins Diversity Panel; type: binding; details: hum
# T1 construct: purchased Eurofins
# T1 sequence (P08913 1-465): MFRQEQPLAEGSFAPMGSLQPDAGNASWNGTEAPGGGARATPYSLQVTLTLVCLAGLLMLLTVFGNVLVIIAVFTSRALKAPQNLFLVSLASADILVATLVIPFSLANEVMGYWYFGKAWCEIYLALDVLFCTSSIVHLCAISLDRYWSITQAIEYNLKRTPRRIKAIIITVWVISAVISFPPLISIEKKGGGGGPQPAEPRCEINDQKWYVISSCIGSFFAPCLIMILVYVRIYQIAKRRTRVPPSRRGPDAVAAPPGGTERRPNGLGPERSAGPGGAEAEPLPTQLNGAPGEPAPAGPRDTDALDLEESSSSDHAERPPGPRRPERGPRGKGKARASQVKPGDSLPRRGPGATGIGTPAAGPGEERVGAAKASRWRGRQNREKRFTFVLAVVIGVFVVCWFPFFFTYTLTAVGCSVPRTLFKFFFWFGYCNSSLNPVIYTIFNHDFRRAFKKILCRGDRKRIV
# Calcium Channel N-Type = Calcium Channel N-Type (Rattus norvegicus, UniProt Q02294); assay: Eurofins Diversity Panel; type: binding; details: Conc. 10 μM
# Phorbol Ester = assay: Eurofins Diversity Panel; type: binding; details: mouse, Conc. 10 μM
# Sodium Channel, Site 2 = assay: Eurofins Diversity Panel; type: binding; details: rat, Conc. 10 μM
# TXK = TXK (Homo sapiens, UniProt P42681); assay: KINOMEscan: TXK; type: binding; details: 100 nM, read-out: Percent Control
# DAPK2 = DAPK2 (Homo sapiens, UniProt Q9UIK4); assay: KINOMEscan: DAPK2; type: binding; details: 1000 nM, read-out: Percent Control
# DCAMKL2 = DCAMKL2 (Homo sapiens, UniProt Q8N568); assay: KINOMEscan: DCAMKL2; type: binding; details: 1000 nM, read-out: Percent Control
# EGFR(G719C) = EGFR(G719C) (Homo sapiens, UniProt P00533, G719C); assay: KINOMEscan: EGFR(G719C); type: binding; details: 1000 nM, read-out: Percent Control
# EGFR(S752-I759del) = EGFR(S752-I759del) (Homo sapiens, UniProt P00533, DEL752-759); assay: KINOMEscan: EGFR(S752-I759del); type: binding; details: 1000 nM, read-out: Percent Control
# FLT3(D835H) = FLT3(D835H) (Homo sapiens, UniProt P36888, D835H); assay: KINOMEscan: FLT3(D835H); type: binding; details: 1000 nM, read-out: Percent Control
# HIPK2 = HIPK2 (Homo sapiens, UniProt Q9H2X6); assay: KINOMEscan: HIPK2; type: binding; details: 1000 nM, read-out: Percent Control
# MAP3K1 = MAP3K1 (Homo sapiens, UniProt Q13233); assay: KINOMEscan: MAP3K1; type: binding; details: 1000 nM, read-out: Percent Control
# MET(Y1235D) = MET(Y1235D) (Homo sapiens, UniProt P08581, Y1235D); assay: KINOMEscan: MET(Y1235D); type: binding; details: 1000 nM, read-out: Percent Control
# Calcium Channel N-Type, sequence (Q02294 whole entry): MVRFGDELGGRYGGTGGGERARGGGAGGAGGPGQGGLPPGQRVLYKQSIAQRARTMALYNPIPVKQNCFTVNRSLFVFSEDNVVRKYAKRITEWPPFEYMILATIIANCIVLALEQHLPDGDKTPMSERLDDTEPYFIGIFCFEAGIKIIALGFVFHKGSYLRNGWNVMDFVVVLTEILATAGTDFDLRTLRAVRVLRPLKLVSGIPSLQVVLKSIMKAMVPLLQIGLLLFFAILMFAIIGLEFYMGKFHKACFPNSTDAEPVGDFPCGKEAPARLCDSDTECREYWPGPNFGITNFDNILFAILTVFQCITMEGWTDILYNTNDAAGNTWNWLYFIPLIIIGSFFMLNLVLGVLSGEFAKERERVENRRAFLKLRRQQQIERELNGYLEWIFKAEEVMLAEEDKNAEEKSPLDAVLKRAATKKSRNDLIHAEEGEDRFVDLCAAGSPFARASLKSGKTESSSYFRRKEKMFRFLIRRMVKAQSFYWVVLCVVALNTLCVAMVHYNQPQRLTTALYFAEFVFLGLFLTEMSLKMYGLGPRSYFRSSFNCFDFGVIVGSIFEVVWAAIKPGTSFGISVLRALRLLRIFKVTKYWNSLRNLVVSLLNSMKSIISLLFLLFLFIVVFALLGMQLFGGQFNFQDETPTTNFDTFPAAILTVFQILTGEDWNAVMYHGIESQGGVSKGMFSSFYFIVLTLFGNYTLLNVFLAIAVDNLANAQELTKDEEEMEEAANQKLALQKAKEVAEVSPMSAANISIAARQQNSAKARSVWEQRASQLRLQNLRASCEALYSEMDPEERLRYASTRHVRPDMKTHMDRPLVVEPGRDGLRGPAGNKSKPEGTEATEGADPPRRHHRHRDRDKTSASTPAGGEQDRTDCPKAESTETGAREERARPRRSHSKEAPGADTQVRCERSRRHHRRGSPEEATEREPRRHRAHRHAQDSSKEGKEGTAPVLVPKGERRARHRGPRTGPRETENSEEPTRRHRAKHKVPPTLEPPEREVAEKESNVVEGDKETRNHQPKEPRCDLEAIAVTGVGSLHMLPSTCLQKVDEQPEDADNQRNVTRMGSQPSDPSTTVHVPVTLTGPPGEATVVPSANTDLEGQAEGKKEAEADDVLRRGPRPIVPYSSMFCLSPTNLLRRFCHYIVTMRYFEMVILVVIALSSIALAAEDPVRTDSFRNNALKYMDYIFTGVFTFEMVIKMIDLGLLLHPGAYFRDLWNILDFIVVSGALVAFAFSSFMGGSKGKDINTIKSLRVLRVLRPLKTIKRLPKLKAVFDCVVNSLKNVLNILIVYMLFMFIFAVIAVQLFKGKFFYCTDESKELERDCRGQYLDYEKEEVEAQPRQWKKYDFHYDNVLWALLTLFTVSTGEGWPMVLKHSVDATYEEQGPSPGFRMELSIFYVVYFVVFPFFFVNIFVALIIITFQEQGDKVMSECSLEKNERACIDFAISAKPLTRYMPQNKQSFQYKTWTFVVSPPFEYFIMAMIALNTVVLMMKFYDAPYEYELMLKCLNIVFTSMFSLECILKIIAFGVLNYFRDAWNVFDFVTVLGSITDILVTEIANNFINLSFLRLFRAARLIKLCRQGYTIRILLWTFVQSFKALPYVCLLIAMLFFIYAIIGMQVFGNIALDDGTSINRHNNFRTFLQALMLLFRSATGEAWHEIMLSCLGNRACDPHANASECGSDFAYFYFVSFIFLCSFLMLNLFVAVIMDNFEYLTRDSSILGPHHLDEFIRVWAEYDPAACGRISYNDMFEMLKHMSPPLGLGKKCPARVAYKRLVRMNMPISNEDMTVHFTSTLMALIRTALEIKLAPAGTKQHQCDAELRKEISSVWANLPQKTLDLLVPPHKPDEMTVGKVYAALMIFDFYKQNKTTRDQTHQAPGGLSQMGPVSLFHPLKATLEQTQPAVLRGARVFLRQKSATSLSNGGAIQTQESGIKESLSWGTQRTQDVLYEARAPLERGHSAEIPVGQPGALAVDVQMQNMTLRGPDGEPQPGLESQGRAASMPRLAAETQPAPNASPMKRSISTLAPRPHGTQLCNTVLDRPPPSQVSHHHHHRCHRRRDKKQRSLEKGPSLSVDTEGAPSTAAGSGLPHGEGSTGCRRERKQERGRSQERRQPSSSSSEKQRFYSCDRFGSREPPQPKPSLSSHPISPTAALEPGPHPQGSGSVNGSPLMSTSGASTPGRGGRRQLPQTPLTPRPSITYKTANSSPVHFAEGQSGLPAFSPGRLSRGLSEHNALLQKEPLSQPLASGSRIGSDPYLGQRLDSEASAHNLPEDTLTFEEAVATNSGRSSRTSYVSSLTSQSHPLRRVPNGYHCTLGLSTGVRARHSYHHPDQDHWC
# HIPK2, sequence (Q9H2X6 whole entry): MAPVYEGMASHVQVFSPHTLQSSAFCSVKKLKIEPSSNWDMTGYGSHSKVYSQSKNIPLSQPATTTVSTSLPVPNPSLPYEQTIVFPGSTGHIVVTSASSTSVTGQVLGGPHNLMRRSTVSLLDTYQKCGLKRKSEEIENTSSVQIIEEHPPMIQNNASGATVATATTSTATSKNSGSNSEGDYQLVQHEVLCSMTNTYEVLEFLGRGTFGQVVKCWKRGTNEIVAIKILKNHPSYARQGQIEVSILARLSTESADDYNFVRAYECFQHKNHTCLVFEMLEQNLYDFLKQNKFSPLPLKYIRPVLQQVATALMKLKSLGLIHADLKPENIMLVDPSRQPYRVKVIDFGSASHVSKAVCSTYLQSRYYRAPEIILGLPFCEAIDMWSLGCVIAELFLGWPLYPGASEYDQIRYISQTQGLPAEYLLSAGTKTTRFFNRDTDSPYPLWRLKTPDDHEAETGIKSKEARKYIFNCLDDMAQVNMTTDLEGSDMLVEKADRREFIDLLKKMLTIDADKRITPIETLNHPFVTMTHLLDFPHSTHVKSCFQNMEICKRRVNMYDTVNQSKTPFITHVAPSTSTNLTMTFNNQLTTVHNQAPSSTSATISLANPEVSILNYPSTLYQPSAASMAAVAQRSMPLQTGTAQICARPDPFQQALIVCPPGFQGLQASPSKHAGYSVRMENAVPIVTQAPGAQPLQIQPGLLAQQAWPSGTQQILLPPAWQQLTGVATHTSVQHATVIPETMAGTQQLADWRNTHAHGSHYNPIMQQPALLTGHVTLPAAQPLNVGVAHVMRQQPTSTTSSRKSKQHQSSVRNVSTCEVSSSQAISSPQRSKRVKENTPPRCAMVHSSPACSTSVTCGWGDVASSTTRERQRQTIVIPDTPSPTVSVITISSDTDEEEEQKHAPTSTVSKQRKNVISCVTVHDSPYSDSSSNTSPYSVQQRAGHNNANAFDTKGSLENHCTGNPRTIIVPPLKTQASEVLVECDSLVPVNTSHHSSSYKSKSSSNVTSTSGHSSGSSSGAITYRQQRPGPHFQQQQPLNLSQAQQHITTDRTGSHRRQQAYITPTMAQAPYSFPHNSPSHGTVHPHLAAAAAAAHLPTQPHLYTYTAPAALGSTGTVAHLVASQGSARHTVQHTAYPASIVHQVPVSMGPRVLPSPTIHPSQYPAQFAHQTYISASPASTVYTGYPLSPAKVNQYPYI
# DAPK2, sequence (Q9UIK4 whole entry): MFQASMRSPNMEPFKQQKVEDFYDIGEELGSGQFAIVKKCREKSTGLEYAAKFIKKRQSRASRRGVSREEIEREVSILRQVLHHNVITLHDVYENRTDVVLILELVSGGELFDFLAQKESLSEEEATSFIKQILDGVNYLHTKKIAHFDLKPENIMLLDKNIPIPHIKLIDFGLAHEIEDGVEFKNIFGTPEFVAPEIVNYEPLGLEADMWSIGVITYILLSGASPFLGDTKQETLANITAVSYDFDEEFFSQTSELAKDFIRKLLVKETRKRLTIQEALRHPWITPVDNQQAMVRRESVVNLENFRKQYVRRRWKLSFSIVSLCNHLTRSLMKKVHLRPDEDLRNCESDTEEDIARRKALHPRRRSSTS
# DCAMKL2, sequence (Q8N568 whole entry): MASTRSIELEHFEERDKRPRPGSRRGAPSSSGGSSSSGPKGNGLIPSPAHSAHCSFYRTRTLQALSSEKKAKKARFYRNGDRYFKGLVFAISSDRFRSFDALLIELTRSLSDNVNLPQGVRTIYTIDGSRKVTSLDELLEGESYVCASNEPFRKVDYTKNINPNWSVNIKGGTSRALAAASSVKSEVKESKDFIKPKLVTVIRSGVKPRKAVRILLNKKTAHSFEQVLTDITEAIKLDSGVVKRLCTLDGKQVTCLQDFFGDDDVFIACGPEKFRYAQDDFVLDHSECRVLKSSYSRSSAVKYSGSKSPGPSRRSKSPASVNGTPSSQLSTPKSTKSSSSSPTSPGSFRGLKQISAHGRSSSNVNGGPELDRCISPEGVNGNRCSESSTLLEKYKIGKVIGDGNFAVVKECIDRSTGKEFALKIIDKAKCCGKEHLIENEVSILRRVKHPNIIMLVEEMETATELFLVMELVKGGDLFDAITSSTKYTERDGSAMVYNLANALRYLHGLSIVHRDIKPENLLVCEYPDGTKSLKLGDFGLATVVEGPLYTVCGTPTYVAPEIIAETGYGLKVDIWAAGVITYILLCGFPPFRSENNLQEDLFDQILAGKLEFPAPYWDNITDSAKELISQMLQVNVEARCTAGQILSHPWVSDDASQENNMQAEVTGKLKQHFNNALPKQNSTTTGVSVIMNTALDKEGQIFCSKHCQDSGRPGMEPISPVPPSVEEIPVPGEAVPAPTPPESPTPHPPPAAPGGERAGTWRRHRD
# EGFR(S752-I759del), sequence (P00533 with tags, fused parts or gaps DEL752-759 limits assumed): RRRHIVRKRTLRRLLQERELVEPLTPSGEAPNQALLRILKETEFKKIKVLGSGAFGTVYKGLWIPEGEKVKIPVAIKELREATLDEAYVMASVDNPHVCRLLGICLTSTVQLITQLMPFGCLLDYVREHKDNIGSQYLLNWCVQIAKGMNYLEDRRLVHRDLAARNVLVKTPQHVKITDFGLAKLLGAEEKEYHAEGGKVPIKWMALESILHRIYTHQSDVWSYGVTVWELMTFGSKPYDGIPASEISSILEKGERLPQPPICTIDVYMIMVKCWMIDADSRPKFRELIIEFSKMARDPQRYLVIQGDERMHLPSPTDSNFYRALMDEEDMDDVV
smiles,measurement,setting,value
COc1cc(F)ccc1-c1cc(Nc2cc(CS(C)(=N)=O)ccn2)ncc1F (centres unmarked) [VIP152],MCL1 transcript LFC,"[1]; 1 µM, two hours vs DMSO",−1.231
same,ZFP36 transcript LFC,"[1]; 1 µM, two hours vs DMSO",−4.02
same,log2FoldChange A1BG,[1]; VIP152 2hr vs DMSO 2hr,0.4323
same,log2FoldChange A1BG-AS1,[1]; VIP152 2hr vs DMSO 2hr,0.777
same,log2FoldChange AAAS,[1]; VIP152 2hr vs DMSO 2hr,0.1502
same,log2FoldChange AAGAB,[1]; VIP152 2hr vs DMSO 2hr,0.6327
same,log2FoldChange AAMDC,[1]; VIP152 2hr vs DMSO 2hr,0.4489
same,IC50,Adrenergic α2A,64 nM
same,Ki,Adrenergic α2A,32 nM
same,nH,Adrenergic α2A,0.94
same,inhibition at 10 µM,Adrenergic α2A; Conc. 10 μM,100%
same,inhibition at 10 µM,Calcium Channel N-Type,4%
same,% Inh.,Phorbol Ester,8%
same,% Inh.,"Sodium Channel, Site 2",26%
same,remaining binding at 0.1 µM,TXK,100%
same,remaining binding at 1 µM,DAPK2,89%
same,remaining binding at 1 µM,DCAMKL2,96%
same,remaining binding at 1 µM,EGFR(G719C),97%
same,remaining binding at 1 µM,EGFR(S752-I759del),97%
same,remaining binding at 1 µM,FLT3(D835H),57%
same,remaining binding at 1 µM,HIPK2,71%
same,remaining binding at 1 µM,MAP3K1,78%
same,remaining binding at 1 µM,MET(Y1235D),19%

# From publication PMC9898036, “VIP152 is a selective CDK9 inhibitor with pre-clinical in vitro and in vivo efficacy in chronic lymphocytic leukemia” (Leukemia, 2022)
